# Residue numbers refer to the chain shown, from its start. In names and notes the source's numbering stands. Entries after “also recorded” stand apart in the source; their conditions may differ. Read-outs that look alike come from different tables or passages of the source.
# B1: F404Y: chimeric modified caspase-9 polypeptide (protein)
# chain: VDGFGDVGALESLRGNADLAYILSMEPCGHCLIINNVNFCRESGLRTRTGSNIDCEKLRRRFSSLHFMVEVKGDLTAKKMVLALLELARQDHGALDCCVVVILSHGCQASHLQFPGAVYGTDGCPVSVEKIVNIFNGTSCPSLGGKPKLFFIQACGGEQKDHGFEVASTSPEDESPGSNPEPDATPFQEGLRTFDQLDAISSLPTPSDIFVSYSTFPGFVSWRDPKSGSWYVETLDDIFEQWAHSEDLQSLLLRVANAVSVKGIYKQMPGCYNFLRKKLFFKTSASRA
# B2: F406T: chimeric modified caspase-9 polypeptide (protein)
# chain: B1 chain with Y272F, F274T
# B3: D330V: chimeric modified caspase-9 polypeptide (protein)
# chain: B1 chain with D198V, Y272F
# B4: D330N: chimeric modified caspase-9 polypeptide (protein)
# chain: B1 chain with D198N, Y272F
# B5: S144A: chimeric modified caspase-9 polypeptide (protein)
# chain: B1 chain with S12A, Y272F
# B6: D330G: chimeric modified caspase-9 polypeptide (protein)
# chain: B1 chain with D198G, Y272F
# B7: F404W: chimeric modified caspase-9 polypeptide (protein)
# chain: B1 chain with Y272W
# B8: F406L: chimeric modified caspase-9 polypeptide (protein)
# chain: B1 chain with Y272F, F274L
# B9: D330S: chimeric modified caspase-9 polypeptide (protein)
# chain: B1 chain with D198S, Y272F
# Key:
# human CD3+CD19+ T cells = assay: AP1903 dose-dependent elimination in vivo of iCasp9-transduced T cells in NSG mice; set-up: species or system immune deficient mice (NSG); settings: i.p., wild-type iCasp9-transduced T cells, 24 hours
# Procedure: (§1) FIG. 65A-B: AP1903 dose-dependent elimination in vivo of T cells transduced with wild-type iCasp9. T cells were transduced with SFG-iCasp9-2A-ΔCD19 retrovirus and injected i.v. into immune deficient mice (NSG). After 24 hours, mice were injected i.p. with AP1903 (0-5 mg/kg). After an additional 24 hours, mice were sacrificed and lymphocytes from the spleen (65A) and peripheral blood (65B) were isolated and analyzed by flow cytometry for the frequency of human CD3^+CD19^+ T cells.
# as §1, with “66:” for “65A-B:”, “D330E” for “wild-type”, “SFG-iCasp9-D330E-2A-ΔCD19” for “SFG-iCasp9-2A-ΔCD19”, “(A)” for “(65A) and peripheral blood (65B)”
# [1] = Phase I study of AP1903 in healthy volunteers; assay type: in vivo; settings: male, human, plasma, intravenous, 0.4 mg/kg; reached within 15-30 min
# Procedure: FIG. 49(A-B) provides the results of a dose-escalation study in normal male volunteers. FIG. 49A is a line graph and 49B is a chart. Healthy volunteers were infused with the indicated doses of AP1903 and at various time points, serum levels of AP1903 were measured using HPLC analysis.
# In a previous Phase I study of AP1903, 24 healthy volunteers were treated with single doses of AP1903 for Injection at dose levels of 0.01, 0.05, 0.1, 0.5 and 1.0 mg/kg infused IV over 2 hours. […] Iuliucci J D, et al., J Clin Pharmacol. 41: 870-9, 2001.
# [2] = cited from earlier work
# cells = assay: AP1903 needed in vitro for effective signaling of cells; assay type: cell-based
# CD3+ΔCD19+ cells = assay: CASPALLO phase 1 trial: AP1903 in patients with GvHD after iCasp9 T cell infusion; assay type: in vivo, human
# HEK293T/16 cells = assay: Secreted alkaline phosphatase (SEAP) reporter-based surrogate killing assay; assay type: cell-based, human; settings: AP1903-independent SEAP activity, relative to wild type
# Procedure: FIG. 45 provides an analysis of SEAP assays. To examine both basal signaling and AP1903 induced activity, […] early-passage HEK293T/16 cells were co-transfected with various amount of wildtype Caspase and 500 ng of an expression plasmid that uses an SRα promoter to drive SEAP, a marker for cell viability. […] of the mixture was seeded onto each well of a 96-well plate. 100-ul of AP1903 was added at least three hours post-transfection. After addition of AP1903 for at least 24 hours, 100-ul of supernatant was transferred to a 96-well plate and heat denatured at 68 ? C for 30 minutes to inactivate endogenous alkaline phosphatases. For the assay, 4-methylumbelliferyl phosphate substrate was hydrolyzed by SEAP to 4-methylumbelliferon, a metabolite that can be excited with 364 nm and detected with an emission filter of 448 nm. Since SEAP is used as a marker for cell viability, reduced SEAP reading corresponds with increased icaspase-9 activities.
# (50A) To examine both basal signaling and AP1903-induced CaspaClDe activity, 10^6 early-passage HEK293T/17 cells were co-transfected with 2 μg of inducible caspase variants along with 500 ng of an expression plasmid using an SRα promoter to transcriptionally regulate SEAP, a surrogate marker for cell viability. 200-μl of the transfection mixture containing plasmids, GeneJammer and HEK293T/17 cells in IMDM+10% FBS (without antibiotics) was seeded into each well of a 96-well plate. To induce caspase activity, 22 μl of serially diluted AP1903 was added 24 hours post-transfection. (50B) To examine basal and AP1903 induced signaling, 100 μl of supernatant was harvested 48 hours post-treatment and heat-denatured at 68° C. for 1 hour to inactivate endogenous alkaline phosphatases. For the assay, 4-methylumbelliferyl phosphate (4-MUP) substrate was hydrolyzed by SEAP to 4-methylumbelliferon, a metabolite with peak excitation at 364 nm and peak emission at 448 nm. Since SEAP is used as a surrogate marker for cell viability, a reduced SEAP reading corresponds to increased caspase-9 activity.
# Early passage HEK293T/16 cells (ATCC, Manassas, Va.) were maintained in IMDM, GlutaMAX™ (Life Technologies, Carlsbad, Calif.) supplemented with 10% FBS, 100 U/mL penicillin, and 100 […] until transfection in a humidified, 37° C., 5% CO2/95% air atmosphere. Cells in logarithmic-phase growth were transiently transfected with 800 ng to 2 μg of expression plasmid encoding iCasp9 mutants and 500 ng of an expression plasmid encoding SRα promoter driven SEAP per million cells in 15-mL conical tubes. […] GeneJammer® Transfection Reagent at a ratio of 3 μl per ug of plasmid DNA was used to transiently transfect HEK293T/16 cells in the absence of antibiotics. 100 μl or 2 mL of the transfection mixture was added to each well in 96-well or 6-well plate, respectively. For SEAP assays, log dilutions of AP1903 were added after a minimum 3-hour incubation post-transfection. For western blots, cells were incubated for 20 minutes with AP1903 (10 nM) before harvesting.
# Twenty-four to forty-eight hours after AP1903 treatment, ˜100 μl of supernatants were harvested into a 96-well plate and assayed for SEAP activity as described. Briefly, after 65° C. heat denaturation for 45 minutes to reduce background caused by endogenous (and serum-derived) alkaline phosphatases that are sensitive to heat, 5 μl of supernatants was added to 95 μl of PBS and added to 100 μl of substrate buffer, containing 1 μl of 100 mM 4-methylumbelliferyl phosphate (4-MUP; Sigma, St. Louis, Mo.) re-suspended in 2 M diethanolamine. Hydrolysis of 4-MUP by SEAP produces a fluorescent […] with excitation/emission (355/460 nm), which can be easily measured. Assays were performed in black opaque 96-well plates to minimize fluorescence leakage between wells (FIG. 45).
# Activated T cells = assay: Control of proliferation of iCasp9-mutant-transduced T cells over 10 days; assay type: cell-based; settings: AP1903 on days 0 and 4
# Description: FIG. 63: iCasp9 mutants with lower sensitivity to AP1903 still control T cell proliferation in vitro. Activated T cells were transduced with retrovirus containing iCasp9 mutants and treated with AP1903 (arrow) on days 0 and 4 and subsequently enumerated for 10 days.
molecule,measurement,setting,value
"CC[C@H](C(=O)N1CCCC[C@H]1C(=O)O[C@H](CCc1ccc(OC)c(OC)c1)c1cccc(OCC(=O)NCCNC(=O)COc2cccc([C@@H](CCc3ccc(OC)c(OC)c3)OC(=O)[C@@H]3CCCCN3C(=O)[C@@H](CC)c3cc(OC)c(OC)c(OC)c3)c2)c1)c1cc(OC)c(OC)c(OC)c1 (relative stereo) [AP1903, 2-Piperidinecarboxylic acid, 1-[(2S)-1-oxo-2-(3,4,5-trimethoxyphenyl)butyl]-, 1,2-ethanediylbis[imino(2-oxo-2,1-ethanediyl)oxy-3,1-phenylene[(1R)-3-(3,4-dimethoxyphenyl)propylidene]] ester, [2S-[1(R*),2R*[S*[S*[1(R*),2R*]]]]]-(9Cl)]",dose sufficient to eliminate most modified T cells in vivo,human CD3+CD19+ T cells,0.5 mg/kg
same,Cmax,[1],100 to 1000 nM
same,safety and tolerability in healthy volunteers,"[2]; 0.01 mg/kg to 1.0 mg/kg dose range, listed as AP1903 for Injection",safe and well tolerated at all dose levels
same,relation of plasma levels to dose,[2]; 0.01-1.0 mg/kg,directly proportional to dose
same,plasma level as % of maximal concentration,[2]; 2 hours post-dose,~7%
same,plasma level as % of maximal concentration,[2]; 10 hours post-dose,~1%
same,well-tolerated doses,[2]; Phase I study,up to 1 mg/kg
same,amount needed in vitro for effective signaling of cells,cells,10 to 100 nM
same,effect of a single dose on GvHD-causing and virus specific T cells,"CD3+ΔCD19+ cells; human, in vivo","can reduce or eliminate the subpopulation of T cells causing GvHD, but can spare virus specific CTLs"
same,further reduction of CD3+ΔCD19+ cells,CD3+ΔCD19+ cells; within 24 hours,additional log killing
B1,basal activity / basal signaling (in words),HEK293T/16 cells,lower basal signaling; also recorded: lowered basal activity
same,control of T cell proliferation and survival within 10 days (in words),Activated T cells,can kill target T cells indistinguishable from wildtype caspase-9 polypeptide or D330A within 10 days
B2,basal activity / basal signaling (in words),HEK293T/16 cells,lower basal signaling; also recorded: lowered basal activity
B3,basal activity / basal signaling (in words),HEK293T/16 cells,less basal activity than wildtype caspase-9
B4,basal activity / basal signaling (in words),HEK293T/16 cells,less basal activity than wildtype caspase-9
B5,basal activity / basal signaling (in words),HEK293T/16 cells,lower basal activity
B6,basal activity / basal signaling (in words),HEK293T/16 cells,less basal activity than wildtype caspase-9
B7,basal activity / basal signaling (in words),HEK293T/16 cells,lower basal signaling; also recorded: lowered basal activity
B8,basal activity / basal signaling (in words),HEK293T/16 cells,lowered basal activity
B9,basal activity / basal signaling (in words),HEK293T/16 cells,less basal activity than wildtype caspase-9

# — patent publication US10525110B2, “Methods for inducing partial apoptosis using caspase polypeptides” (Bellicum Pharmaceuticals, Inc., priority 2013, dated 2020)
